Laboratory results taken from PMC10224031, “Arylimidamides Have Potential for Chemoprophylaxis against Blood-Transmitted Chagas Disease” (Pathogens, 2023).
Where “and” joins values, the source holds several entries; their conditions need not be identical. Equal entries are not always repeated. Where two headings read alike, the source gives them in different places. Marks after values point to notes of the source that are not given here.

Tests used:
[1] = system: T. cruzi bloodstream trypomastigotes; experiment: In vivo infectivity in Swiss mice of blood samples infected with bloodstream trypomastigotes pre-treated with AIAs or CV; design: species or system Trypanosoma cruzi; conditions: for suppression of the parasite load (parasitemia): both genders; for Clearance of the Parasitemia / Clearance of the Parasitemia after cyclophosphamide administration: cleared mice/total
Description: Male and female Swiss Webster mice (18–20 g) were obtained from the Fundação Oswaldo Cruz animal facilities (ICTB, Rio de Janeiro, Brazil). Mice were housed at a maximum of five per cage, kept in a specific pathogen-free (SPF) room at 20 to 24 °C under a 12-h/12 h light/dark cycle and provided sterilized water and chow ad libitum. The animals were allowed to acclimate for 7 days before the start of the experiments.
For evaluation of the chemoprophylactic potential of the AIAs and CV in vivo, the mice were inoculated (via i.p.) with 10^4 trypomastigotes into 200 µL of: (a) infected untreated blood samples; (b) infected using blood samples pre-treated for 2 h with the compounds at a concentration corresponding either to their EC50 or with 96 µM of one of the AIAs.
Parasitemia of individual mice was daily checked (until 10 dpi, and then, twice a week) by direct microscopic counting of parasites in 5 µL of blood taken via tail prick. Body weight was evaluated weekly, and mortality was checked daily until 40 days post-treatment and expressed as the percentage of survival. Thirty days after treatment the animals were immunosuppressed with cyclophosphamide (50 mg/kg) in three cycles of 4 consecutive days/week and the parasitemia and mortality rates were evaluated for 4 weeks.

mouse blood cells = format: cell-based; conditions: Swiss Webster, 24 h
Description: In 96-well microplates, 100 µL of the mouse blood suspension was added to the same volume of DB745 or DB766 at concentrations ranging from 2.4 to 192 µM. After incubation at 4 °C for 24 h, the samples were centrifuged (5 min/540× g) and a 100 µL aliquot was transferred to another microplate and the levels of hemoglobin measured at 540 nm. Deionized water was used as control for 100% hemolytic activity, and PBS as a negative control. The degree of hemolysis was calculated by the variation index (VI) that corresponds to the ratio of optical density (OD) of the treated sample/positive control. The reading of the OD of the samples was performed in the SpectraMax® Plus 384 Absorbance Plate Reader spectrophotometer (540 nm) and duplicate samples were run in at least two assays.

[2] = system: bloodstream trypomastigotes (BT) of Trypanosoma cruzi; experiment: In vitro infectivity of bloodstream trypomastigotes pre-treated with AIAs in cardiac cell cultures; format: cell-based; conditions: for Par./Infected CC / II (infection index = % infection × parasites/infected CM) / % Infection: BT pre-treated 2 h at EC50 (DB745 6.4 μM, DB766 1.14 μM)
Description: Bloodstream trypomastigote (BT) forms of the Y strain were obtained from infected male Swiss mice, at peak parasitemia. The purified parasites were resuspended in Dulbecco’s modified Eagle’s medium (DME) supplemented with 10% FBS (DMES). […] Then, the parasite suspensions were centrifuged (3000 rpm/10 min) and the pellet resuspended in RPMI, quantified through light microscopy, and used for the infection of Swiss embryo mouse cardiac cell cultures (CC) seeded (15 × 10^4 cells/well) in 24-well plates (10:1 parasite–cell ratio). After 24 h of parasite–host cell interaction, the infected cultures were washed to remove free parasites and maintained at 37 °C in an atmosphere of 5% CO2 and air and the culture medium replaced every 24 h. Afterwards, untreated and treated infected cardiac cells (CCs) were fixed and stained with Giemsa and examined via light microscopy. Only characteristic T. cruzi nuclei and kinetoplasts were counted as surviving parasites since irregular structures could mean parasites undergoing death. The activity of the AIAs was estimated by calculating the infection index (II), which corresponds to the percentage of infected cells multiplied by the average number of intracellular parasites per infected host cell. Duplicate assays were run in the same plate and at least two independent assays were performed as standard.

[3] = system: bloodstream trypomastigotes of Trypanosoma cruzi; conditions: cited from earlier work; for fold more effective than crystal violet (trypanocidal activity): 4 °C in the presence of 96% mouse blood
[4] = experiment # 1, inoculum pre-treated 2 h at 96 μM, male Swiss mice, n = 5, vehicle 261.1 ± 124.6
[5] = experiment # 1, pre-treatment at 96 μM
[6] = experiment # 2, inoculum pre-treated 2 h at 96 μM, male Swiss mice, n = 5, vehicle 277.9 ± 57.2
[7] = experiment # 2, pre-treatment at 96 μM
[8] = female Swiss mice, n = 10, inoculum pre-treated at 96 µM, vehicle 247.7 ± 25.3
[9] = female mice, 96 µM, untreated 0%
[10] = male Swiss mice, n = 10, inoculum pre-treated at 96 µM, vehicle 209.8 ± 29.2
[11] = 24 h of parasite-host cell interaction, untreated 23.4 ± 5.5
[12] = experiment # 1, inoculum pre-treated 2 h at EC50, male Swiss mice, n = 5, vehicle 261.1 ± 124.6
[13] = experiment # 1, pre-treatment at EC50
[14] = experiment # 2, inoculum pre-treated 2 h at EC50, male Swiss mice, n = 5, vehicle 277.9 ± 57.2
[15] = experiment # 2, pre-treatment at EC50
[16] = 2 h incubation, infected mouse blood, read-out: EC50

Row | Compound | suppression of the parasite load (parasitemia) ([1]; 96 µM) | Parasitemia at 8 dpi [1, 4] | Clearance of the Parasitemia [1, 5] | Parasitemia at 8 dpi [1, 6] | Clearance of the Parasitemia [1, 7] | Parasitemia at 8 dpi [1, 8] | Clearance of the Parasitemia after cyclophosphamide administration ([1]; female Swiss mice, 96 µM) | animal survival [1, 9] | Parasitemia at 8 dpi [1, 10] | Clearance of the Parasitemia after cyclophosphamide administration ([1]; male Swiss mice, 96 µM) | animal survival ([1]; male mice, 96 µM, untreated 0%) | OD (mouse blood cells; 3.9 μM) | VI (variation index = OD(treated)/OD(control)) (mouse blood cells; 3.9 μM) | OD (mouse blood cells; 10.6 μM) | VI (variation index = OD(treated)/OD(control)) (mouse blood cells; 10.6 μM) | Parasitemia at 8 dpi [1, 12] | Clearance of the Parasitemia [1, 13] | Parasitemia at 8 dpi [1, 14] | Clearance of the Parasitemia [1, 15] | fold more effective than crystal violet (trypanocidal activity) [3] | further results
1 | CN(C)c1ccc(C(=C2C=CC(=[N+](C)C)C=C2)c2ccc(N(C)C)cc2)cc1 [CV, crystal violet, reference compound] | > 99% | 34.7 ± 38.5 ×10^4 Parasites/mL | 0/5 | 1.6 ± 1.7 ×10^4 Parasites/mL | 0/5 | 0 ± 0 10^4 parasites/mL | 3/10 | 90% | 0.1 ± 0.2 10^4 parasites/mL | 4/10 | 60% | – | – | – | – | – | – | – | – | – | –
2 | CCOc1cc(NC(=N)c2ccccn2)ccc1-c1ccc(-c2ccc(NC(=N)c3ccccn3)cc2OCC)o1 [DB745] | – | 4.6 ± 2.4 ×10^4 Parasites/mL | 0/5 | 1.3 ± 1.1 ×10^4 Parasites/mL | 0/5 | – | – | – | – | – | – | 0.215 ± 0.037 | 0.082 | 0.184 ± 0.014 | 0.070 | 156.4 ± 31.1 ×10^4 Parasites/mL | 0/5 | 4.2 ± 2.1 ×10^4 Parasites/mL | 0/5 | at least 30 fold | OD (mouse blood cells; 1.2 μM): 0.220 ± 0.063; VI (variation index = OD(treated)/OD(control)) (mouse blood cells; 1.2 μM): 0.084; OD (mouse blood cells; 32 μM): 0.195 ± 0.007; VI (variation index = OD(treated)/OD(control)) (mouse blood cells; 32 μM): 0.074; OD (mouse blood cells; 96 μM): 0.206 ± 0.004; VI (variation index = OD(treated)/OD(control)) (mouse blood cells; 96 μM): 0.078; Par./Infected CC ([2]; 24 h, untreated 1.6 ± 0.5): 1.4 ± 0.3; II (infection index = % infection × parasites/infected CM) ([2]; 24 h, untreated 38 ± 16): 10 ± 4.4; % Infection [2, 11]: 7.3 ± 3.4 %; Par./Infected CC ([2]; 72 h, untreated 17.7 ± 1.7): 18.6 ± 2.4; % Infection ([2]; 72 h, untreated 26.3 ± 2.3): 14.6 ± 0.2%; II (infection index = % infection × parasites/infected CM) ([2]; 72 h, untreated 466 ± 49): 272 ± 39; effect on parasite multiplication (parasites per infected host cell) ([2]; BT pre-incubated at EC50): only slightly impaired the parasite multiplication; reduction of parasitemia peak ([1]; inoculum pre-treated at EC50, male Swiss mice): > 98%; EC50 [3, 16]: 6.4 µM
3 | CC(C)Oc1cc(NC(=N)c2ccccn2)ccc1-c1ccc(-c2ccc(NC(=N)c3ccccn3)cc2OC(C)C)o1 [DB766] | – | 7.9 ± 5.2 ×10^4 Parasites/mL | 0/5 | 0.7 ± 1.1 ×10^4 Parasites/mL | 0/5 | – | – | – | – | – | – | 0.248 ± 0.018 | 0.094 | 0.200 ± 0.034 | 0.076 | 141.3 ± 152.7 ×10^4 Parasites/mL | 0/5 | 170.5 ± 39 ×10^4 Parasites/mL | 0/5 | at least 30 fold | OD (mouse blood cells; 32 μM): 0.230 ± 0.051; VI (variation index = OD(treated)/OD(control)) (mouse blood cells; 32 μM): 0.088; OD (mouse blood cells; 96 μM): 0.317 ± 0.069; VI (variation index = OD(treated)/OD(control)) (mouse blood cells; 96 μM): 0.121 *; Par./Infected CC ([2]; 24 h, untreated 1.6 ± 0.5): 0.5 ± 0.7; II (infection index = % infection × parasites/infected CM) ([2]; 24 h, untreated 38 ± 16): 0.5 ± 2.1; decrease in number of parasites per infected host cell ([2]; 24 h of CC infection, BT pre-incubated at EC50): 69%; % Infection [2, 11]: 1% and 1.0 ± 1.5 %; Par./Infected CC ([2]; 72 h, untreated 17.7 ± 1.7): 0.3 ± 0.4; % Infection ([2]; 72 h, untreated 26.3 ± 2.3): 0.1% and 0.1 ± 0.2%; II (infection index = % infection × parasites/infected CM) ([2]; 72 h, untreated 466 ± 49): 0.03 ± 0.2; decrease in number of parasites per infected host cell ([2]; 72 h of CC infection, BT pre-incubated at EC50): 98%; reduction in the II ([2]; BT pre-incubated at EC50): > 99%; EC50 [3, 16]: 1.14 µM
4 | CC(C)Oc1cc(NC(=N)c2ncccn2)ccc1-c1ccc(-c2ccc(NC(=N)c3ncccn3)cc2OC(C)C)o1 [DB1831] | > 99% | 0.0 ± 0.0 ×10^4 Parasites/mL | 2/5 | 0.0 ± 0.0 ×10^4 Parasites/mL | 4/5 | 0.1 ± 0.5 10^4 parasites/mL | 2/10 | 100% | 0.0 ± 0.0 10^4 parasites/mL | 7 out of 10 and 7/10 | 90% | – | – | – | – | 366.2 ± 295.1 ×10^4 Parasites/mL | 0/5 | 157.7 ± 55.9 ×10^4 Parasites/mL | 0/5 | at least 30 fold | infected mice with complete clearance of parasitemia ([1]; 96 µM, even after immune suppression with cyclophosphamide): 60%; animal survival ([1]; 96 µM, vehicle treated samples 0%): ≥ 90%; EC50 ([3]; used as inoculation pre-treatment concentration (Table 3 footnote a), read-out: EC50/2 h): 0.5 µM
